# According to PMC11187126, “Structure and dynamics of the pyroglutamylated RF-amide peptide QRFP receptor GPR103” (Nature Communications, 2024):
# Like-named read-outs stand apart in the source and are kept apart here. No end group written: not given here.
# Target: T1, GPR103 L193^ECL2A (Homo sapiens, UniProt Q96P65, L193A)
# T1 construct: we used human full-length QRFPR-encoding plasmids; expressed in transfected cells; host or cells: HEK293 cells, pCAGGS vector
# T1 sequence (Q96P65 1-431 L193A): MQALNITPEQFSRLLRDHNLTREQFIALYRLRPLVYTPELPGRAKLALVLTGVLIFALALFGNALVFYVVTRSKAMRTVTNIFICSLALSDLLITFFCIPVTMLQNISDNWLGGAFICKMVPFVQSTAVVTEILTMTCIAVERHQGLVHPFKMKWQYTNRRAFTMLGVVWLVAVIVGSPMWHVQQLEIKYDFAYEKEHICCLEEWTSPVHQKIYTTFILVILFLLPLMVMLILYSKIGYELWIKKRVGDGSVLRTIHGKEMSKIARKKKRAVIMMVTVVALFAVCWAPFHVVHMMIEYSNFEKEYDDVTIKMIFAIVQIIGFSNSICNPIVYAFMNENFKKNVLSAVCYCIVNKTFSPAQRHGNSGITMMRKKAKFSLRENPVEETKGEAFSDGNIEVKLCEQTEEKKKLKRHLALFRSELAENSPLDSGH
# Assay: TGFα shedding assay; Exp. level WT (1:50)
# Assay type: cell-based
substance,measurement,setting,value
TSGPLGNLAEELNGYSRKKGGFSFRF-NH2 [QRFP26],Emax,Exp. #1,89.95 % WT
same,Emax,Exp. #2,86.94 % WT
same,Emax,Exp. #3,94.38 % WT
same,Emax,"mean, read-out: Emax",90.4%
same,EC50,n = 3,182 nM
same,Emax,"n = 3, read-out: Emax",93.8 ± 1.8%
